Assay results from patent US10844052B2, “LLS compounds for treatment of cancer” (THE REGENTS OF THE UNIVERSITY OF CALIFORNIA, priority 2016, dated 2020).

Test system: SKOV3
Test: Anti-cancer activity against ovarian cancer cells SKOV3 (cell killing in solution / in vitro cell proliferation)
Type: cell-based
Settings: Homo sapiens, SK-OV-3, ovarian cancer cells SKOV3
Protocol: Biotinylated LLS2 was synthesized in solution and loaded it onto a streptavidin-coated plate. The biotinylated LLS2 immobilized on the plate killed approximately 21% of SKOV3 ovarian cancer cells at 100 μM loading, 16% at 50 μM and 14% at 25 μM (FIG. 4). The killing effect of the LLS2 compound was also tested in solution. […] In addition, LLS2 can kill pancreatic cancer cell line XPA3, prostate cancer cell line PC3, colon cancer cell line HT29, breast cancer cell line MCF7 and lung cancer cell line A549 (FIG. 4).

CC(=O)OCCN(CCOC(C)=O)c1ccc(-c2nc3cc(C(CC(N)=O)NC(=O)[C@@H](N)[C@H](C)O)ccc3n2Cc2ccc(F)c(F)c2)cc1 (stereo partly drawn) [LLS3, ((4-(5-(3-amino-1-((2S,3S)-2-amino-3-hydroxybutanamido)-3-oxopropyl)-1-(3,4-difluorobenzyl)-1H-benzo[d]imidazol-2-yl)phenyl)azanediyl)bis(ethane-2,1-diyl) Diacetate]
IC50: 37.6 µM

COc1ccc(C[C@@H](N)C(=O)NC(CC(N)=O)c2ccc3c(c2)nc(-c2cccc(Cn4ccnc4)c2)n3CCc2ccccn2)cc1 (stereo partly drawn) [LLS1, (2R)—N-(1-(2-(3-((1H-imidazol-1-yl)methyl)phenyl)-1-(2-(pyridin-2-yl)ethyl)-1H-benzo[d]imidazol-5-yl)-3-amino-3-oxopropyl)-2-amino-3-(4-methoxyphenyl)propanamide]
IC50: 29.5 µM

NC(=O)CC(NCc1ccc(Cl)c(Cl)c1)c1ccc2c(c1)nc(-c1ccc(N(CCO)CCO)cc1)n2Cc1ccc(F)c(Cl)c1 (stereo not drawn) [LLS31, 3-(2-(4-(bis(2-hydroxyethyl)amino)phenyl)-1-(3-chloro-4-fluorobenzyl)-1H-benzo[d]imidazol-5-yl)-3-((3,4-dichlorobenzyl)amino)propanamide]
IC50: 16.4 µM

CC(=O)OCCN(CCOC(C)=O)c1ccc(-c2nc3cc(C(CC(N)=O)NC(=O)[C@@H](N)Cc4ccc(F)c(F)c4)ccc3n2Cc2ccc(OC(F)(F)F)cc2)cc1 (stereo partly drawn) [LLS9, ((4-(5-(3-amino-1-((S)-2-amino-3-(3,4-difluorophenyl)propanamido)-3-oxopropyl)-1-(4-(trifluoromethoxy)benzyl)-1H-benzo[d]imidazol-2-yl)phenyl)azanediyl)bis(ethane-2,1-diyl) Diacetate]
IC50: 17.6 µM

CC(=O)OCCN(CCOC(C)=O)c1ccc(-c2nc3cc(C(CC(N)=O)NC(=O)[C@@H](N)Cc4ccc(Cl)c(Cl)c4)ccc3n2CC23CC4CC(CC(C4)C2)C3)cc1 (stereo partly drawn) [LLS6, ((4-(1-(((1s,3R)-adamantan-1-yl)methyl)-5-(3-amino-1-((S)-2-amino-3-(3,4-dichlorophenyl)propanamido)-3-oxopropyl)-1H-benzo[d]imidazol-2-yl)phenyl)azanediyl)bis(ethane-2,1-diyl) Diacetate]
IC50: 7.8 µM

CC(=O)OCCN(CCO)c1ccc(-c2nc3cc(C(CC(N)=O)NC(=O)[C@@H](N)Cc4ccc(Cl)c(Cl)c4)ccc3n2Cc2ccc(F)c(F)c2)cc1 (stereo partly drawn) [LLS5, 2-((4-(5-(3-amino-1-((S)-2-amino-3-(3,4-dichlorophenyl)propanamido)-3-oxopropyl)-1-(3,4-difluorobenzyl)-1H-benzo[d]imidazol-2-yl)phenyl)(2-hydroxyethyl)amino)ethyl Acetate]
IC50: 18.7 µM

CC(=O)OCCN(CCOC(C)=O)c1ccc(-c2nc3cc(C(CC(N)=O)NCc4ccc(Cl)c(Cl)c4)ccc3n2Cc2ccc(Cl)c(Cl)c2)cc1 (stereo not drawn) [LLS20, ((4-(5-(3-amino-1-((3,4-dichlorobenzyl)amino)-3-oxopropyl)-1-(3,4-dichlorobenzyl)-1H-benzo[d]imidazol-2-yl)phenyl)azanediyl)bis(ethane-2,1-diyl) Diacetate]
IC50: 7.5 µM

NC(=O)CC(NC(=O)[C@@H](N)Cc1ccc(Cl)c(Cl)c1)c1ccc2c(c1)nc(-c1ccc(N(CCO)CCO)cc1)n2Cc1ccc(F)c(F)c1 (stereo partly drawn) [LLS12, (2S)-2-amino-N-(3-amino-1-(2-(4-(bis(2-hydroxyethyl)amino)phenyl)-1-(3,4-difluorobenzyl)-1H-benzo[d]imidazol-5-yl)-3-oxopropyl)-3-(3,4-dichlorophenyl)propanamide]
IC50: > 50 µM

CCCC[C@H](N)C(=O)NC(CC(N)=O)c1ccc2c(c1)nc(-c1nccs1)n2CCN1CCCCC1 (stereo partly drawn) [LLS4, (2S)-2-amino-N-(3-amino-3-oxo-1-(1-(2-(piperidin-1-yl)ethyl)-2-(thiazol-2-yl)-1H-benzo[d]imidazol-5-yl)propyl)hexanamide]
IC50: > 50 µM

CC(=O)OCCN(CCOC(C)=O)c1ccc(-c2nc3cc(C(CC(N)=O)NC(=O)[C@@H](N)Cc4ccc(Cl)c(Cl)c4)ccc3n2Cc2cc(F)ccc2F)cc1 (stereo partly drawn) [LLS10, ((4-(5-(3-amino-1-((S)-2-amino-3-(3,4-dichlorophenyl)propanamido)-3-oxopropyl)-1-(2,5-difluorobenzyl)-1H-benzo[d]imidazol-2-yl)phenyl)azanediyl)bis(ethane-2,1-diyl) Diacetate]
IC50: 36.4 µM

CC(=O)OCCN(CCOC(C)=O)c1ccc(-c2nc3cc(C(CC(N)=O)NCc4ccc(Cl)c(Cl)c4)ccc3n2CC23CC4CC(CC(C4)C2)C3)cc1 (stereo not drawn) [LLS26, ((4-(1-(((1s,3s)-adamantan-1-yl)methyl)-5-(3-amino-1-((3,4-dichlorobenzyl)amino)-3-oxopropyl)-1H-benzo[d]imidazol-2-yl)phenyl)azanediyl)bis(ethane-2,1-diyl) Diacetate]
IC50: 10.5 µM

CC(=O)OCCN(CCOC(C)=O)c1ccc(-c2nc3cc(C(CC(N)=O)NC(=O)Nc4ccc(C(F)(F)F)c(Cl)c4)ccc3n2Cc2ccc(F)c(F)c2)cc1 (stereo not drawn) [LLS15, ((4-(5-(3-amino-1-(3-(3-chloro-4-(trifluoromethyl)phenyl)ureido)-3-oxopropyl)-1-(3,4-difluorobenzyl)-1H-benzo[d]imidazol-2-yl)phenyl)azanediyl)bis(ethane-2,1-diyl) Diacetate]
IC50: > 50 µM

CC(=O)OCCN(CCOC(C)=O)c1ccc(-c2nc3cc(C(CC(N)=O)NC(=O)[C@@H](N)Cc4ccc(F)c(F)c4)ccc3n2Cc2ccc(F)c(F)c2)cc1 (stereo partly drawn) [LLS11, ((4-(5-(3-amino-1-((S)-2-amino-3-(3,4-difluorophenyl)propanamido)-3-oxopropyl)-1-(3,4-difluorobenzyl)-1H-benzo[d]imidazol-2-yl)phenyl)azanediyl)bis(ethane-2,1-diyl) Diacetate]
IC50: > 50 µM

CC(=O)OCCN(CCOC(C)=O)c1ccc(-c2nc3cc(C(N)CC(N)=O)ccc3n2Cc2ccc(C(F)(F)F)c(F)c2)cc1 (stereo not drawn) [LLS22, ((4-(5-(1,3-diamino-3-oxopropyl)-1-(3-fluoro-4-(trifluoromethyl)benzyl)-1H-benzo[d]imidazol-2-yl)phenyl)azanediyl)bis(ethane-2,1-diyl) Diacetate]
IC50: > 50 µM

NC(=O)CC(c1ccc2c(c1)nc(-c1ccc(N(CCO)CCO)cc1)n2CC12CC3CC(CC(C3)C1)C2)N(Cc1ccc(Cl)c(Cl)c1)Cc1ccc(Cl)c(Cl)c1 (stereo not drawn) [LLS29, 3-(1-(((1s,3s)-adamantan-1-yl)methyl)-2-(4-(bis(2-hydroxyethyl)amino)phenyl)-1H-benzo[d]imidazol-5-yl)-3-(bis(3,4-dichlorobenzyl)amino)propanamide]
IC50: 25.5 µM

CC(=O)OCCN(CCOC(C)=O)c1ccc(-c2nc3cc(C(CC(N)=O)NCc4ccc(Cl)c(Cl)c4)ccc3n2Cc2ccc(F)c(Cl)c2)cc1 (stereo not drawn) [LLS21, ((4-(5-(3-amino-1-((3,4-dichlorobenzyl)amino)-3-oxopropyl)-1-(3-chloro-4-fluorobenzyl)-1H-benzo[d]imidazol-2-yl)phenyl)azanediyl)bis(ethane-2,1-diyl) Diacetate]
IC50: 8.9 µM

NC(=O)CC(NCc1ccc(N(CCO)CCO)cc1)c1ccc2c(c1)nc(-c1ccc(N(CCO)CCO)cc1)n2Cc1ccc(Cl)c(Cl)c1 (stereo not drawn) [LLS38, 3-((4-(bis(2-hydroxyethyl)amino)benzyl)amino)-3-(2-(4-(bis(2-hydroxyethyl)amino)phenyl)-1-(3,4-dichlorobenzyl)-1H-benzo[d]imidazol-5-yl)propanamide]
IC50: > 50 µM

NC(=O)CC(NCc1ccc(Cl)c(Cl)c1)c1ccc2c(c1)nc(-c1ccc(N(CCO)CCO)cc1)n2Cc1ccc(OC(F)(F)F)cc1 (stereo not drawn) [LLS36, 3-(2-(4-(bis(2-hydroxyethyl)amino)phenyl)-1-(4-(trifluoromethoxy)benzyl)-1H-benzo[d]imidazol-5-yl)-3-((3,4-dichlorobenzyl)amino)propanamide]
IC50: > 50 µM

NC(=O)CC(NCc1ccc(Cl)c(Cl)c1)c1ccc2c(c1)nc(-c1ccc(N3CCOCC3)cc1)n2Cc1ccc(OC(F)(F)F)cc1 (stereo not drawn) [LLS24, 3-((3,4-dichlorobenzyl)amino)-3-(2-(4-morpholinophenyl)-1-(4-(trifluoromethoxy)benzyl)-1H-benzo[d]imidazol-5-yl)propanamide]
IC50: 40.1 µM

CC(=O)OCCN(CCOC(C)=O)c1ccc(-c2nc3cc(C(CC(N)=O)NC(=O)Nc4ccc(Cl)c(Cl)c4)ccc3n2Cc2ccc(F)c(F)c2)cc1 (stereo not drawn) [LLS16, ((4-(5-(3-amino-1-(3-(3,4-dichlorophenyl)ureido)-3-oxopropyl)-1-(3,4-difluorobenzyl)-1H-benzo[d]imidazol-2-yl)phenyl)azanediyl)bis(ethane-2,1-diyl) Diacetate]
IC50: 35.1 µM

CC(=O)OCCN(CCOC(C)=O)c1ccc(-c2nc3cc(C(CC(N)=O)NCc4ccc(F)c(F)c4)ccc3n2CC23CC4CC(CC(C4)C2)C3)cc1 (stereo not drawn) [LLS8, ((4-(1-(((1s,3s)-adamantan-1-yl)methyl)-5-(3-amino-1-((3,4-difluorobenzyl)amino)-3-oxopropyl)-1H-benzo[d]imidazol-2-yl)phenyl)azanediyl)bis(ethane-2,1-diyl) Diacetate]
IC50: 16.7 µM

NC(=O)CC(NCc1ccc(Cl)c(Cl)c1)c1ccc2c(c1)nc(-c1ccc(N(CCO)CCO)cc1)n2CC12CC3CC(CC(C3)C1)C2 (stereo not drawn) [LLS28, 3-(1-(((1s,3s)-adamantan-1-yl)methyl)-2-(4-(bis(2-hydroxyethyl)amino)phenyl)-1H-benzo[d]imidazol-5-yl)-3-((3,4-dichlorobenzyl)amino)propanamide]
IC50: 16.1 µM

CC(=O)OCCN(CCO)c1ccc(-c2nc3cc(C(CC(N)=O)NCc4ccc(Cl)c(Cl)c4)ccc3n2Cc2ccc(F)c(Cl)c2)cc1 (stereo not drawn) [LLS34, 2-((4-(5-(3-amino-1-((3,4-dichlorobenzyl)amino)-3-oxopropyl)-1-(3-chloro-4-fluorobenzyl)-1H-benzo[d]imidazol-2-yl)phenyl)(2-hydroxyethyl)amino)ethyl Acetate]
IC50: 8.9 µM

NC(=O)CC(NC(=O)[C@@H](N)Cc1ccc(Cl)c(Cl)c1)c1ccc2c(c1)nc(-c1ccc(N(CCO)CCO)cc1)n2Cc1cc(F)ccc1F (stereo partly drawn) [LLS13, (2S)-2-amino-N-(3-amino-1-(2-(4-(bis(2-hydroxyethyl)amino)phenyl)-1-(2,5-difluorobenzyl)-1H-benzo[d]imidazol-5-yl)-3-oxopropyl)-3-(3,4-dichlorophenyl)propanamide]
IC50: > 50 µM
